Laboratory results: PMC5309245, “Discovery and Characterization of Diazenylaryl Sulfonic Acids as Inhibitors of Viral and Bacterial Neuraminidases” (Frontiers in Microbiology, 2017)

Assays:
[1] = target: IAV WSN/33 NA-wt (whole virus) (Influenza A virus, UniProt P03470); assay: biochemical; set-up: species or system influenza A virus A/WSN/1933 (H1N1); conditions: for IC50: NA inhibition using FL assay IC50, IAV WSN/33
[2] = target: IAV HK/68 NA (whole virus) (Influenza A virus, UniProt Q91MA2); assay: biochemical; set-up: species or system influenza A virus A/Hong Kong/68 (H3N2)
IAV HK/68 NA (whole virus), sequence (Q91MA2 whole entry, looked up): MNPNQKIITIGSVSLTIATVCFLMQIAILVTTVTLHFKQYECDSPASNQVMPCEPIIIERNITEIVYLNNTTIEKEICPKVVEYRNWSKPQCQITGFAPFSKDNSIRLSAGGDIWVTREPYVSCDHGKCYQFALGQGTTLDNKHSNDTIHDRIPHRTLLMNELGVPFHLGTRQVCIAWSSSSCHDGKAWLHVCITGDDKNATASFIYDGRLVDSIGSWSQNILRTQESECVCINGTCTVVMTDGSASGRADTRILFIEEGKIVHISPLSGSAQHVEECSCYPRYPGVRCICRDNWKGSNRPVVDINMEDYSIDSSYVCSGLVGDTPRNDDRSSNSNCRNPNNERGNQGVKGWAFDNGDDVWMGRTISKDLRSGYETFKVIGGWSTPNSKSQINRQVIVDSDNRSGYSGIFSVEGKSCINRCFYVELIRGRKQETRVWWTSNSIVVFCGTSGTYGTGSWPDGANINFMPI

[3] = target: T1, S. pneumoniae DSM20566 NA (NanA) (Streptococcus pneumoniae, UniProt P62575); assay: FL NA inhibition assay, S. pneumoniae DSM20566; assay type: biochemical; conditions: MUNANA substrate; for IC50: read-out: NA inhibition using FL assay IC50, S. p. DSM20566
T1 construct: host or cells: either rNanA from E. coli BL21(DE3) or total precipitated protein of S. pneumoniae DSM20566
T1 sequence (P62575 54-1035): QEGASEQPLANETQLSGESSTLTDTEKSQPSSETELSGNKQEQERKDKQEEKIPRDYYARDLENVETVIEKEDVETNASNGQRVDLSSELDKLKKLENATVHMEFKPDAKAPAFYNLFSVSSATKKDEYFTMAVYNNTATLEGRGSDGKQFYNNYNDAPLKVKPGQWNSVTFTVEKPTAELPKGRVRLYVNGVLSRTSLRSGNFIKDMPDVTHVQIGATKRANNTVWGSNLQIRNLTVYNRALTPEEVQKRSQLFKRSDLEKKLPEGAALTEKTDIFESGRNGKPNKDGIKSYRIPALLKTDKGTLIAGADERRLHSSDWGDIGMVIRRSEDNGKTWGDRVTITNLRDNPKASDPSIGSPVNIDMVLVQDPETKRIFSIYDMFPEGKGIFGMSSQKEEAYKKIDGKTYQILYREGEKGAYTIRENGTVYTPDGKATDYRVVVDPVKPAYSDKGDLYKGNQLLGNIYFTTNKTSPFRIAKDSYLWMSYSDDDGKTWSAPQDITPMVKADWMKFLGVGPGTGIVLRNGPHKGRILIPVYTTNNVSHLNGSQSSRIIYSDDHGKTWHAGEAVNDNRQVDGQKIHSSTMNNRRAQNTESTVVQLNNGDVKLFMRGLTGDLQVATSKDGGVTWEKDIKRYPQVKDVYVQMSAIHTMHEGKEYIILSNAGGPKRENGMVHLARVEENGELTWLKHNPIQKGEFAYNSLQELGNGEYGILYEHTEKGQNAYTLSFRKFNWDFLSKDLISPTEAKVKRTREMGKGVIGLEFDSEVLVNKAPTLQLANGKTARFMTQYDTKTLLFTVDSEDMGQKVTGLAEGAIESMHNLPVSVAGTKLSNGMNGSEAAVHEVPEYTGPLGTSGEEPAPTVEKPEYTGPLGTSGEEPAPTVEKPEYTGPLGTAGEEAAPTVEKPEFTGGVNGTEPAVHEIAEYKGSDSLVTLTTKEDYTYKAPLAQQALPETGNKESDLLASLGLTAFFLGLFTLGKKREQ

IAV 5258/09 NA = assay: Hemagglutination (HA)-based NA inhibition assay, IAV 5258/09; assay type: cell-based, influenza A virus A/Jena/5258/2009 (H1N1); conditions: human erythrocytes
[4] = target: T2, S. pneumoniae DSM20566 NA (Streptococcus pneumoniae, UniProt P62575); assay: HA-based NA inhibition assay, S. pneumoniae DSM20566; assay type: cell-based; conditions: human erythrocytes
T2 construct: host or cells: either rNanA from E. coli BL21(DE3) or total precipitated protein of S. pneumoniae DSM20566
T2 sequence (P62575 54-1035): as above

[5] = tested on: influenza A virus 8178/09; assay: microbe, parasite or virus in culture; assay type: cell-based, influenza A virus A/Jena/8178/2009 (H1N1)
influenza A virus WSN/33 = assay: microbe, parasite or virus in culture; assay type: cell-based, influenza A virus A/WSN/1933 (H1N1)
influenza A virus HK/68 = assay: microbe, parasite or virus in culture; assay type: cell-based, influenza A virus A/Hong Kong/68 (H3N2)
S. pneumoniae DSM20566 = assay: Microtiter broth microdilution assay, planktonic growth; assay type: cell-based, Streptococcus pneumoniae DSM20566; conditions: 18 h, maximum 50 μM
[6] = tested on: S. pneumoniae DSM20566 biofilm; assay: Biofilm inhibition assay; assay type: cell-based, Streptococcus pneumoniae DSM20566; conditions: for 50% inhibitory concentration, S. pneumoniae DSM20566 biofilm formation: 24 h, maximum 50 μM
human erythrocytes [7] = assay type: cell-based; conditions: human erythrocytes, 2 h at 4°C
Experimental: (§1) Viral (whole virus) and bacterial NA activity as well as their inhibition were measured by using a fluorescence (FL) assay with the substrate 2′-(4-methylumbelliferyl)-α-D-N-acetylneuraminic acid sodium salt hydrate (MUNANA, 100 μM; Sigma-Aldrich GmbH, Taufkirchen, Germany), and/or a hemagglutination (HA)-based NA inhibition assay (HA assay) with human erythrocytes (Institute of Transfusion Medicine, University Hospital Jena, Jena, Germany), both assays as published recently (Richter et al., [2015]). Recombinant NanA (rNanA) and total precipitated bacterial protein of S. pneumoniae DSM20566 were used in FL and HA assays. Interference of the compounds with the FL signal (self-fluorescence and quenching) was excluded as described previously (Richter et al., [2015]). […] Each compound was tested at least three times in both NA inhibition assays.
Supplementary Table 1. Assay interference phenomena of test compounds in the HA-based […]
sample concentrations [µM] in viral HA-assay bacterial HA-assay […]
hem- prevention of erythrocyte hem- erythrocyte agglutinationa virus-induced lysisc agglutinationd lysise […]
cTest compounds lysed the human erythrocytes (2 h at 4°C). […]

human erythrocytes [8] = assay type: cell-based; conditions: human erythrocytes, 4 h at 37°C and 12 h at 4°C
Experimental: as §1
Supplementary Table 1. […]
eTest compounds lysed the human erythrocytes (4 h at 37°C and 12 h at 4°C).

in vitro = conditions: dog

IAV WSN/33 NA-wt (whole virus), sequence (P03470 whole entry, looked up): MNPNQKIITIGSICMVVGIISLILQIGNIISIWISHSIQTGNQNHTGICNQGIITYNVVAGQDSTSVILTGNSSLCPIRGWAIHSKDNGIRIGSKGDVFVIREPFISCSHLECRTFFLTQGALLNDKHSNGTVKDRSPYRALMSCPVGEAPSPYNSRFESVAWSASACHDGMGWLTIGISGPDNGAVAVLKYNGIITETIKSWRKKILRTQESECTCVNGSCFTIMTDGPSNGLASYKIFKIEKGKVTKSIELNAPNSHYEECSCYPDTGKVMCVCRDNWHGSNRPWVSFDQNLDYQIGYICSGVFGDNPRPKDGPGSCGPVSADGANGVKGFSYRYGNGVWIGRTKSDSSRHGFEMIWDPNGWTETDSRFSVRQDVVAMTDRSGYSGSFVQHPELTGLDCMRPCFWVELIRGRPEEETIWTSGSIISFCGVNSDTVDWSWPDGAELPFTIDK

Compound	NA inhibition using FL assay IC50, IAV WSN/33 [1]	NA inhibition using FL assay IC50, IAV HK/68 [2]	NA inhibition using FL assay IC50, S. p. DSM20566 [3]	NA inhibition using HA assay MIC, IAV 5258/09 (IAV 5258/09 NA)	NA inhibition using HA assay MIC, S. p. DSM20566 [4]	50% inhibitory concentration, influenza A virus 8178/09 [5]	50% inhibitory concentration, influenza A virus WSN/33 (influenza A virus WSN/33)	50% inhibitory concentration, influenza A virus HK/68 (influenza A virus HK/68)	50% inhibitory concentration, S. pneumoniae DSM20566 planktonic growth (S. pneumoniae DSM20566)	50% inhibitory concentration, S. pneumoniae DSM20566 biofilm formation [6]	sample concentrations provoking erythrocyte lysis, viral HA-assay (human erythrocytes [7])	sample concentrations provoking erythrocyte lysis, bacterial HA-assay (human erythrocytes [8])	CC50 (in vitro) [µM]	IC50 [1] [µM]	IC50 ([2]; NA inhibition using FL assay IC50, IAV HK/68) [µM]	IC50 [3] [µM]	IC50 (S. pneumoniae DSM20566; Streptococcus pneumoniae, DSM20566, read-out: 50% inhibitory concentration, S. pneumoniae DSM20566 planktonic growth) [µM]	inhibition at 50 µM ([6]; Streptococcus pneumoniae, DSM20566, 50 μM, read-out: Inhibition of biofilm formation at the maximum tested concentration) [%]
O=[N+]([O-])c1ccc(/N=N/c2c(O)c(S(=O)(=O)O)cc3cc(S(=O)(=O)O)ccc23)cc1 [Compound 12]	Not active	Not active	Not active	Not active	Not active	Not active	Not active	Not active	Not active	Not active	no	no	> 100	–	–	–	–	–
O=[N+]([O-])c1cccc(/N=N/c2c(O)c(S(=O)(=O)O)cc3cc(S(=O)(=O)O)ccc23)c1 [Compound 13]	Not active	Not active	Not active	Not active	Not active	Not active	Not active	Not active	Not active	Not active	no	no	> 100	–	–	–	–	–
O=S(=O)(O)c1ccc2c(/N=N/c3c(O)ccc4ccccc34)cccc2c1 [Compound 14]	–	–	–	Not active^c	Not active^c	Not active	Not active	Not active	Not active	Not active	no	no	> 100	28.9 ± 6.9	83 ± 6.25	5.74 ± 1.41	–	–
O=S(=O)(O)c1cc(/N=N/c2c(O)ccc3ccccc23)c2c(S(=O)(=O)O)cccc2c1 [Compound 15]	–	Not active	–	Not active^c	Not active^c	Not active	Not active	Not active	Not active	Not active	no	no	> 100	28.7 ± 3.3	–	46.8 ± 5.27	–	–
O=S(=O)(O)c1cc(S(=O)(=O)O)c2c(/N=N/c3cccc4ccccc34)c(O)ccc2c1 [Compound 16]	–	Not active	–	31.60 ± 0.00 µM	24.40 ± 12.47 µM	Not active	Not active	Not active	–	–	no	no	> 100	44.3 ± 2.38	–	7.68 ± 0.98	12 ± 6.81	46
